In patent US10072011B2, “Substituted bridged urea analogs as sirtuin modulators” (GlaxoSmithKline Intellectual Property (No.2) Limited, priority 2014, dated 2018):

Target: T1, SIRT1 (Homo sapiens, UniProt Q96EB6)
T1 sequence (Q96EB6 1-747): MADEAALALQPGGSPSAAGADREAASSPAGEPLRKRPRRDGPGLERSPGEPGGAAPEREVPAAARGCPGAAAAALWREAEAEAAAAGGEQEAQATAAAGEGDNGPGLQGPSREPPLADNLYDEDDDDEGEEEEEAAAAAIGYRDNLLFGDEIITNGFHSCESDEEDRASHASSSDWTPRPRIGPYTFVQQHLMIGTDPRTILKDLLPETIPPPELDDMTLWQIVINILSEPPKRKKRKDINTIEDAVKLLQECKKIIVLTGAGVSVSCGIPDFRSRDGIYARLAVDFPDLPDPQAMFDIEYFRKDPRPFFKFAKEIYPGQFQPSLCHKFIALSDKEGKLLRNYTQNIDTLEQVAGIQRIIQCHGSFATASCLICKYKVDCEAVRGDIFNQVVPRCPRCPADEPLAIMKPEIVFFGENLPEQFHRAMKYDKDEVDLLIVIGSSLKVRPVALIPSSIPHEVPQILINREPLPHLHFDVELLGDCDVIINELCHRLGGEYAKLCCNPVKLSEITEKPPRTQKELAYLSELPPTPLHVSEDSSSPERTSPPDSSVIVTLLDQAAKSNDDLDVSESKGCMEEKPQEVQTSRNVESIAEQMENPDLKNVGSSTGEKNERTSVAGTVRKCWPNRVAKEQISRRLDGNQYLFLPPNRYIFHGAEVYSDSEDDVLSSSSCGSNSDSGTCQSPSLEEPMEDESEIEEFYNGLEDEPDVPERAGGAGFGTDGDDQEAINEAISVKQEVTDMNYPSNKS
Assay: Trp mass spectrometry assay of SIRT1 activation (Ac-R-H-K-K(Ac)-W-NH2 peptide)
Assay type: biochemical
Settings: Trp peptide 0.5 μM, 120 μM βNAD+, 10 nM SIRT1, 25 min at 25° C.; for Emax: 25 min, relative to control (100%), read-out: TRP MAX RESP (percent maximum fold activation)
In short: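 Mass spectrometry read-out (OAADPR formed, or deacetylated Trp peptide) after a 25 min NAD-dependent deacetylation by E. coli-expressed His-SIRT1, stopped with formic acid.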

Row | SMILES | Emax | TRP Activity (EC1.5, concentration of test compound that results in 150% activation of SIRT1)
1 | C[C@@H](NC(=O)c1ccc2c(n1)N(C(=O)Nc1cccc(OC[C@@H](O)CO)n1)[C@H]1CCN2C1)C(F)(F)F [Example 144, (4S)—N5-(6-((S)-2,3-dihydroxypropoxy)pyridin-2-yl)-N7-((R)-1,1,1-trifluoropropan-2-yl)-3,4-dihydro-1,4-methanopyrido[2,3-b][1,4]diazepine-5,7(2H)-dicarboxamide] | > 150% | A (EC1.5<1 μM)
2 | C[C@@H](NC(=O)c1ccc2c(n1)N(C(=O)Nc1ncc3[nH]ccc3n1)[C@H]1CCN2C1)C(F)(F)F [Example 147, (4S)—N5-(5H-pyrrolo[3,2-d]pyrimidin-2-yl)-N7-((R)-1,1,1-trifluoropropan-2-yl)-3,4-dihydro-1,4-methanopyrido[2,3-b][1,4]diazepine-5,7(2H)-dicarboxamide] | > 150% | A (EC1.5<1 μM)
3 | Cc1ncc(-c2ccnc(NC(=O)N3c4nc(C(=O)N[C@H](C)C(F)(F)F)ccc4N4CC[C@H]3C4)c2)s1 [Example 148, (4S)—N5-(4-(2-methylthiazol-5-yl)pyridin-2-yl)-N7-((R)-1,1,1-trifluoropropan-2-yl)-3,4-dihydro-1,4-methanopyrido[2,3-b][1,4]diazepine-5,7(2H)-dicarboxamide] | > 150% | A (EC1.5<1 μM)
4 | C[C@@H](NC(=O)c1ccc2c(n1)N(C(=O)Nc1ccc(OC[C@H](O)CO)cn1)[C@H]1CCN2C1)C(F)(F)F [Example 149, (4S)—N5-(5-((R)-2,3-dihydroxypropoxy)pyridin-2-yl)-N7-((R)-1,1,1-trifluoropropan-2-yl)-3,4-dihydro-1,4-methanopyrido[2,3-b][1,4]diazepine-5,7(2H)-dicarboxamide] | > 150% | A (EC1.5<1 μM)
5 | CNC(=O)c1ccnc(NC(=O)N2c3nc(C(=O)N[C@H](C)C(F)(F)F)ccc3N3CC[C@H]2C3)c1 [Example 151, (4S)—N5-(4-(methylcarbamoyl)pyridin-2-yl)-N7-((R)-1,1,1-trifluoropropan-2-yl)-3,4-dihydro-1,4-methanopyrido[2,3-b][1,4]diazepine-5,7(2H)-dicarboxamide] | > 150% | A (EC1.5<1 μM)

Results, then the compound that gave them:

Row | Emax | TRP Activity (EC1.5, concentration of test compound that results in 150% activation of SIRT1) | SMILES
6 | > 150% | A (EC1.5<1 μM) | O=C(NCC1CC1)c1ccc2c(n1)N(C(=O)Nc1cc3c(cn1)OCCC3)[C@H]1CCN2C1 [Example 145, (4S)—N7-(cyclopropylmethyl)-N5-(3,4-dihydro-2H-pyrano[2,3-c]pyridin-6-yl)-3,4-dihydro-1,4-methanopyrido[2,3-b][1,4]diazepine-5,7(2H)-dicarboxamide]
7 | > 150% | B (EC1.5 1-25 μM) | CS(=O)(=O)c1ccc(NC(=O)N2c3nc(C(=O)NCC(F)(F)F)ccc3N3CC[C@H]2C3)nc1 [Example 146, (4S)—N5-(5-(methylsulfonyl)pyridin-2-yl)-N7-(2,2,2-trifluoroethyl)-3,4-dihydro-1,4-methanopyrido[2,3-b][1,4]diazepine-5,7(2H)-dicarboxamide]
8 | > 150% | A (EC1.5<1 μM) | C[C@@H](NC(=O)c1ccc2c(n1)N(C(=O)Nc1cc(C(=O)NN)ccn1)[C@H]1CCN2C1)C(F)(F)F [Example 152, (4S)—N5-(4-(hydrazinecarbonyl)pyridin-2-yl)-N7-((R)-1,1,1-trifluoropropan-2-yl)-3,4-dihydro-1,4-methanopyrido[2,3-b][1,4]diazepine-5,7(2H)-dicarboxamide]
